Test results reported in patent US20250361230A1, “LATS Inhibitors and Uses Thereof” (The USA, as Represented by the Secretary, Dept. of Heath …, priority 2022, published 2025).
Where two headings read alike, the source gives them in different places.

Key:
[1] = target: T1, AKT Kinase-NanoLuc fusion in HEK-293 cells (Homo sapiens, UniProt P31749); experiment: NanoBRET target engagement assay in transfected HEK-293 cells, AKT; type: cell-based
T1 construct: host or cells: HEK-293
Procedure, shortened: (§1)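 HEK-293 cells transiently transfected with kinase-NanoLuc fusion plasmid for 22-24 h, then incubated with compound and NanoBRET tracer for 1 hour at 37° C. After substrate plus extracellular NanoLuc inhibitor addition, 460 and 600 nm emissions read; no-tracer-corrected BRET ratio used to derive IC50 values.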

[2] = target: T2, LATS1 Kinase-NanoLuc fusion in HEK-293 cells (Homo sapiens, UniProt O95835); experiment: NanoBRET target engagement assay in transfected HEK-293 cells, LATS1; type: cell-based
T2 construct: host or cells: HEK-293
T2 sequence (O95835 1-1130): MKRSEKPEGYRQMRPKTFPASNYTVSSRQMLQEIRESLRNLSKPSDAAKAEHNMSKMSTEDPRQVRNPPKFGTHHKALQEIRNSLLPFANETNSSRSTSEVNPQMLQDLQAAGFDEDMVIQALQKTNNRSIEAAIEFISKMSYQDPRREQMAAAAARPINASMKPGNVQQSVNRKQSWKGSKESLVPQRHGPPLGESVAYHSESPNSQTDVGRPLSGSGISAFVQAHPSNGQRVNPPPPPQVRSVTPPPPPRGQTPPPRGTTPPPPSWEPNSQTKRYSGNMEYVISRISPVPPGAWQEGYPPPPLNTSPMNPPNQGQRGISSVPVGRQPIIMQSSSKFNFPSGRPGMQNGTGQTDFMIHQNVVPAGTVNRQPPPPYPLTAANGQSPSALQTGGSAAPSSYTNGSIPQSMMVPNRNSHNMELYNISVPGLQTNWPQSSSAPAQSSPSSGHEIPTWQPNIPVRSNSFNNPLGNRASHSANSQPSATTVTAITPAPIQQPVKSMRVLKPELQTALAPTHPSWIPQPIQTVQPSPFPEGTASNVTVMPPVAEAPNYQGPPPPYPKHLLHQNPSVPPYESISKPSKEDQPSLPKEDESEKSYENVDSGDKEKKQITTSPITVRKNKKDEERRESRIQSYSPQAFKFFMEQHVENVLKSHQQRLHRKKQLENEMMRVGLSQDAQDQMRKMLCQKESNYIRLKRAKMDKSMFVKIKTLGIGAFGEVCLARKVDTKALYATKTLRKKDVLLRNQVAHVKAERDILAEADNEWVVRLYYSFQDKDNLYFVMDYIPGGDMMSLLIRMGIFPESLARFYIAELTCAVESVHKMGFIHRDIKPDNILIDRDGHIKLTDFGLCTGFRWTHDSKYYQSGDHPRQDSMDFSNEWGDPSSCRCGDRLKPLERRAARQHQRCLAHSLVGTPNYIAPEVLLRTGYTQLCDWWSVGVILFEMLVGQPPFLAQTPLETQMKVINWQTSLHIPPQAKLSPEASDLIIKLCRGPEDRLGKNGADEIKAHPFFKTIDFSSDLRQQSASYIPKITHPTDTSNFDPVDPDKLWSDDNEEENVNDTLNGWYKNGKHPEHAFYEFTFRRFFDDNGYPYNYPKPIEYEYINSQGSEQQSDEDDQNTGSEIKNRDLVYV
Procedure, shortened: as §1

[3] = Table 28, NanoBRET, HEK-293 cells, read-out: AKT1 (Cellular) IC50
[4] = Table 28, NanoBRET, HEK-293 cells, read-out: LATS1 (Cellular) IC50
[5] = Table 32, NanoBRET, HEK-293 cells, read-out: AKT (Cellular) IC50
[6] = Table 32, NanoBRET, HEK-293 cells, read-out: LATS1 (Cellular) IC50

T1 sequence (P31749 whole entry, the tested form may be a part): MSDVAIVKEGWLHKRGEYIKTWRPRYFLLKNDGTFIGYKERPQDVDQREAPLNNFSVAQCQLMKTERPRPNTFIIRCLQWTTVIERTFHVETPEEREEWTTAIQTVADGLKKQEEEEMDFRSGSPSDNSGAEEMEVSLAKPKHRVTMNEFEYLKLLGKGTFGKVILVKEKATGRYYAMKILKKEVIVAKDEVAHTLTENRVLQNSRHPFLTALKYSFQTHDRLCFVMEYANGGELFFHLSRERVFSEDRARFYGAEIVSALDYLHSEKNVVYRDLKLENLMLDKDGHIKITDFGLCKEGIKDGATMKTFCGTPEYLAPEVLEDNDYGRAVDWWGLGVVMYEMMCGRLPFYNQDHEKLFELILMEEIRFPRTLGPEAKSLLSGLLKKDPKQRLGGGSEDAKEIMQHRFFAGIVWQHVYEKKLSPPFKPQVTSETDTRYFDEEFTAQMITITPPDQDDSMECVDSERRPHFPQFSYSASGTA

IC50 [1, 3]	IC50 [2, 4]	SMILES	further results
> 30 µM	0.205 µM	C[C@@H]1CN(CC(N)=O)C[C@H](C)[C@@]1(O)c1c(F)cc(-c2ccnc3[nH]cc(F)c23)cc1F [Compound 88, 2-((3R,4s,5S)-4-(2,6-difluoro-4-(3-fluoro-1H-pyrrolo[2,3-b]pyridin-4-yl)phenyl)-4-hydroxy-3,5-dimethylpiperidin-1-yl)acetamide]	
31.5 µM	0.462 µM	C[C@@H]1CN(C2CCC2)C[C@H](C)[C@@]1(O)c1c(F)cc(-c2ccnc3[nH]cc(F)c23)cc1F [Compound 46, (3R,4s,5S)-1-cyclobutyl-4-(2,6-difluoro-4-(3-fluoro-1H-pyrrolo[2,3-b]pyridin-4-yl)phenyl)-3,5-dimethylpiperidin-4-ol]	
18.2 µM	0.147 µM	C[C@@H]1CN(C(=O)CN)C[C@H](C)[C@@]1(O)c1c(F)cc(-c2ccnc3[nH]cc(F)c23)cc1F [Compound 58]	
		NCC(O)(c1ccc(Cl)cc1)c1ccc(-c2ccnc3[nH]cc(-c4ccccc4)c23)cc1 (stereo not drawn) [Compound 1006, 2-amino-1-(4-chlorophenyl)-1-(4-(3-phenyl-1H-pyrrolo[2,3-b]pyridin-4-yl)phenyl)ethan-1-ol]	IC50 [1, 5]: 0.135 µM; IC50 [2, 6]: 0.283 µM
22.6 µM	6.37 µM	Cc1cc(-c2ccnc3[nH]cc(F)c23)ccc1CN [Compound 211, (4-(3-fluoro-1H-pyrrolo[2,3-b]pyridin-4-yl)-2-methylphenyl) methanamine]	
> 50 µM	> 50 µM	OC1(c2ccc(-c3ccnc4[nH]ccc34)cc2)CCNCC1 [Compound 111, 4-(4-(1H-pyrrolo[2,3-b]pyridin-4-yl)phenyl)piperidin-4-ol]	
73.9 µM	1.2 µM	Clc1c[nH]c2nccc(-c3ccc(C4CCNCC4)cc3)c12 [Compound 173, 3-chloro-4-(4-(piperidin-4-yl)phenyl)-1H-pyrrolo[2,3-b]pyridine]	
3.91 µM	0.714 µM	Cc1cc(-c2ccnc3[nH]cc(Cl)c23)ccc1CN [Compound 254, (4-(3-chloro-1H-pyrrolo[2,3-b]pyridin-4-yl)-2-methylphenyl) methanamine]	
		Cc1cc(-c2ccnc3[nH]cc(C#N)c23)cc(F)c1[C@@]1(O)[C@H](C)CN(C(=O)[C@](C)(N)CO)C[C@@H]1C [Compound 2008, 4-(4-((3S,4s,5R)-1-(2-amino-3-hydroxy-2-methylpropanoyl)-4-hydroxy-3,5-dimethylpiperidin-4-yl)-3-fluoro-5-methylphenyl)-1H-pyrrolo[2,3-b]pyridine-3-carbonitrile]	IC50 ([1]; cellular, read-out: AKT (Cellular) IC50): > 50 µM; IC50 ([2]; cellular): < 0.0025 µM
		NCC(O)(c1ccc(Cl)cc1)c1ccc(-c2ccnc3[nH]cc(Br)c23)cc1 (stereo not drawn) [Compound 1005, 2-amino-1-(4-(3-bromo-1H-pyrrolo[2,3-b]pyridin-4-yl)phenyl)-1-(4-chlorophenyl)ethan-1-ol]	IC50 [1, 5]: 0.0029 µM; IC50 [2, 6]: 0.008 µM
9.53 µM	1.56 µM	CC(C)(N)c1ccc(-c2ccnc3[nH]cc(F)c23)cc1 [Compound 238, 2-(4-(3-fluoro-1H-pyrrolo[2,3-b]pyridin-4-yl)phenyl)propan-2-amine]	
32.3 µM	0.338 µM	C[C@@H]1CN(C2CCNCC2)C[C@H](C)[C@@]1(O)c1c(F)cc(-c2ccnc3[nH]cc(F)c23)cc1F [Compound 90, (3R,4s,5S)-4-(2,6-difluoro-4-(3-fluoro-1H-pyrrolo[2,3-b]pyridin-4-yl)phenyl)-3,5-dimethyl-[1,4′-bipiperidin]-4-ol]	
14.5 µM	> 50 µM	c1cc(-c2ccc(C3CCCCN3)cc2)c2cc[nH]c2n1 (stereo not drawn) [Compound 271, 4-(4-(piperidin-2-yl)phenyl)-1H-pyrrolo[2,3-b]pyridine]	
> 50 µM	> 50 µM	Fc1c[nH]c2nccc(-c3ccc(C4CCNCC4)c(Cl)c3)c12 [Compound 172, 4-(3-chloro-4-(piperidin-4-yl)phenyl)-3-fluoro-1H-pyrrolo[2,3-b]pyridine]	
19.8 µM	0.367 µM	Cc1cc(-c2ccnc3[nH]cc(F)c23)ccc1[C@@]1(O)[C@H](C)CN(C2CCS(=O)(=O)CC2)C[C@@H]1C [Compound 55, 4-((3R,4s, 5S)-4-(4-(3-fluoro-1H-pyrrolo[2,3-b]pyridin-4-yl)-2-methylphenyl)-4-hydroxy-3,5S-dimethylpiperidin-1-yl)tetrahydro-2H-thiopyran 1,1-dioxide]	

SMILES	IC50 [1, 3]	IC50 [2, 4]	further results
C[C@@H]1CNC[C@H](C)[C@@]1(O)c1ccc(-c2ccnc3[nH]cc(F)c23)cc1Cl [Compound 1, (3S,4S,5R)-4-(2-chloro-4-(3-fluoro-1H-pyrrolo[2,3-b]pyridin-4-yl)phenyl)-3,5-dimethylpiperidin-4-ol]	21.2 µM	0.203 µM	
Cc1cc(-c2ccnc3[nH]cc(F)c23)cc(F)c1[C@@]1(O)[C@H](C)CN(C(C)C)C[C@@H]1C [Compound 305, (3S,4s,5R)-4-(2-fluoro-4-(3-fluoro-1H-pyrrolo[2,3-b]pyridin-4-yl)-6-methylphenyl)-1-isopropyl-3,5-dimethylpiperidin-4-ol]	29.4 µM	0.0622 µM	
OC1(c2ccc(-c3ccnc4[nH]cc(F)c34)cc2)CC2(CNC2)C1 [Compound 319, 6-(4-(3-fluoro-1H-pyrrolo[2,3-b]pyridin-4-yl)phenyl)-2-azaspiro[3.3]heptan-6-ol]	44.8 µM	27.7 µM	
